In publication PMC8329300, “X-ray crystallography reveals molecular recognition mechanism for sugar binding in a melibiose transporter MelB” (Communications Biology, 2021):

Test system: E. coli DW2 strain (melB−, lacZ−Y−)
Test: [3H]Melibiose transport time course with DW2 intact cells
Type: cell-based, Escherichia coli
Design: unit not given here
Conditions: 0.4 mM [3H]melibiose
Description: Fig. 1 Functional characterizations. a [^3H] Melibiose transport time course with intact cells. E. coli DW2 strain (melB^−, lacZ^−Y^−) expressed with the WT, D59C, or D59A MelBSt mutants were subjected to [^3H]melibiose active transport assay at 0.4 mM and 10 mCi/mmol in the presence of 20 mM or 100 mM NaCl or LiCl by a fast filtration method. Inset, melibiose fermentation assay. Transformants with DW2 strain were plated on MacConkey agar plates containing 30 mM melibiose as the sole carbohydrate source and pH sensor neutral red, and incubated at 37 °C for 16–18 h before imaging. Number of tests = 3, from different batch of cells or duplicate measurements from same batch of sample. b Ligand binding by Trp→dansyl galactoside (D^2G) FRET assay. Purified proteins at 1 μM concentration in 20 mM Tris-HCl, pH 7.5, 100 mM CholCl, 10% glycerol, and 0.03% UDM were subjected to steady-state fluorescence measurements as described in Methods. On the time-trace, 1.8 μL of 1 mM D^2G at 10 μM was added into 180 μL of protein solutions at 1-min point, followed by supplying 10 μL of 5 mM DDMB or 5 mM α-NPG to displace the bound D^2G. For testing Na^+ or Li^+ binding, they are added into the solution before displacement with the second sugar. The structure of DDMB or α-NPG is shown in a chair form, and the carbon positions are labeled. Glycosidic bonds are indicated by arrows. Both are α-galactosides containing a substituent at the anomeric carbon-1. The data were from duplicate measurements.
The overexpression of MelBSt was carried out in the E. coli DW2 strain (melA^+, melB^−, and lacZ^−Y^−) from a constitutive expression plasmid pK95ΔAH/MelBSt/CHis10[9],[28],[33]. The D59C or D59A mutant with Cys or Ala at the position 59, respectively, was constructed previously[9] or in this study by QuikChange Site-Directed Mutagenesis kit and confirmed by DNA sequencing analysis. E. coli DW2 cells containing a given plasmid were grown in Luria-Bertani (LB) broth (5 g yeast extract and 10 g tryptone per liter with 171 mM NaCl) with 100 mg/L of ampicillin in a 37 °C shaker. The overnight cultures were diluted by 5% with LB broth supplemented with 0.5% glycerol and 100 mg/L of ampicillin, and constitutive overexpression was obtained by shaking at 30 °C for another 5 h.
E. coli DW2 cells expressing MelBSt were washed with 100 mM KPi, pH 7.5, to remove Na^+ contamination as described previously. The cell pellets were resuspended with the assay buffer (100 mM KPi, pH 7.5, 10 mM MgSO4) and adjusted to A420 of 10 (∼0.7 mg protein/ml). Using a fast filtration, transport time course at 0.4 mM melibiose (at specific activity of 10 mCi/mmol) was carried out in the absence or presence of NaCl or LiCl at 20 mM or 100 mM, respectively, and intracellular melibiose was determined as described previously.

Compound `OC[C@H]1O[C@H](OCC2O[C@@H](O)[C@H](O)[C@@H](O)[C@@H]2O)[C@H](O)[C@@H](O)[C@H]1O` (stereo partly shown) [Melibiose] has a Melibiose transport (H+, Time 0.08333) of 5.1051, a Melibiose transport (H+, Time 0.16667) of 0.0051 and a Melibiose transport (H+, Time 0.5) of 5.3907. For the same compound, the Melibiose transport (H+, Time 1) was 1.8156, the Melibiose transport (H+, Time 2) was 6.1659 and the Melibiose transport (H+, Time 5) was 3.5343. The Melibiose transport (H+, Time 10) was 0.765, the Melibiose transport (H+, Time 30) was 0.4743 and the Melibiose transport (Li+, 20 mM, Time 0.08333) was 4.9419. The Melibiose transport (Li+, 20 mM, Time 0.16667) was 5.658, the Melibiose transport (Li+, 20 mM, Time 0.5) was 3.542 and the Melibiose transport (Li+, 20 mM, Time 1) was 2.349. For the same compound, the Melibiose transport (Li+, 20 mM, Time 2) was 6.918, the Melibiose transport (Li+, 20 mM, Time 5) was 4.664 and the Melibiose transport (Li+, 20 mM, Time 10) was 5.3448. The Melibiose transport (Li+, 20 mM, Time 30) was 4.1259, the Melibiose transport (Li+, 100 mM, Time 0.08333) was 3.0914 and the Melibiose transport (Li+, 100 mM, Time 0.16667) was 1.7168. The Melibiose transport (Li+, 100 mM, Time 0.5) was 6.0378, the Melibiose transport (Li+, 100 mM, Time 1) was 1.9198 and the Melibiose transport (Li+, 100 mM, Time 2) was 3.77. It also gave a Melibiose transport (Li+, 100 mM, Time 5) of 5.9682, a Melibiose transport (Li+, 100 mM, Time 10) of 7.743 and a Melibiose transport (Li+, 100 mM, Time 30) of -0.2436. The Melibiose transport (Na+, 20 mM, Time 0.08333) was 5.1051, the Melibiose transport (Na+, 20 mM, Time 0.16667) was 0.0051 and the Melibiose transport (Na+, 20 mM, Time 0.5) was 5.3907. For the same compound, the Melibiose transport (Na+, 20 mM, Time 1) was 1.8156, the Melibiose transport (Na+, 20 mM, Time 2) was 6.1659 and the Melibiose transport (Na+, 20 mM, Time 5) was 3.5343. It also gave a Melibiose transport (Na+, 20 mM, Time 10) of 0.765, a Melibiose transport (Na+, 20 mM, Time 30) of 0.4743 and a Melibiose transport (Na+, 100 mM, Time 0.08333) of 0.1281. The Melibiose transport (Na+, 100 mM, Time 0.16667) was 1.6531, the Melibiose transport (Na+, 100 mM, Time 0.5) was 2.6962 and the Melibiose transport (Na+, 100 mM, Time 1) was 0.671. It also gave a Melibiose transport (Na+, 100 mM, Time 2) of -3.3611, a Melibiose transport (Na+, 100 mM, Time 5) of 0.2867 and a Melibiose transport (Na+, 100 mM, Time 10) of 0.0793. For the same compound, the Melibiose transport (Na+, 100 mM, Time 30) was -2.3912.
